Results: the supplement of paper PMC11451515

How the values were obtained:
Details in all cases: 48 h
P12-Ichikawa [1] = assay: cell viability relative to DMSO control; higher = less cytotoxic
Procedure, shortened: (§1)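 Leukemia cells (NOMO1 or SEM, 500 cells/well; P12-Ichikawa, 1000 cells/well) were seeded in 5 μl in 1536-well plates after at least four passages of adaptation to each medium. They received library compounds in DMSO by pin dosing, 11 threefold points from 47 μM to 0.79 nM. Luminescence with CellTiter-Glo One was read after 48 h at 37°C. Viability is stated per plate relative to DMSO wells, with cell-free wells as background.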

SEM cells [2] = assay: as above
Procedure, shortened: as §1

P12-Ichikawa [3] = assay: AUC of viability dose-response curve (% viability x log10 dose units); higher = less sensitive
Procedure, shortened: (§2)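 Library compounds in DMSO were applied for 48 h at 37°C at 11 threefold doses (47 μM to 0.79 nM) to medium-adapted leukemia cells in 1536-well plates holding 500 or 1000 cells/well. Luminescence from CellTiter-Glo One was normalised plate by plate against DMSO and cell-free wells. Area under the curve came from trapezoidal integration of a log-logistic fit, after scaling curves that rose above full viability and discarding those that failed quality control. The fit had four parameters and used log10 doses.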

NOMO1 [4] = assay: as above
Procedure, shortened: as §2

SEM cells [5] = assay: as above
Procedure, shortened: as §2

NOMO1 [6] = assay: cell viability relative to DMSO control; higher = less cytotoxic
Procedure, shortened: as §1

O=C(O)CC/C=C\CC[C@@H]1[C@@H](N2CCCCC2)[C@@H](O)C[C@@H]1OCc1ccc(-c2ccccc2)cc1
cell viability [%], HPLM + 10% dialyzed FBS
Details	P12-Ichikawa [1]	SEM cells [2]
0.000781 µM	124	117
0.00234 µM	131	131
0.00702 µM	125	117
0.0211 µM	126	136
0.0632 µM	116	129
0.19 µM	119	123
0.569 µM	131	127
1.71 µM	129	117
5.12 µM	107	111
15.4 µM	108	114
46.1 µM	109	112

AUC of viability dose-response curve
Details	NOMO1 [4]	P12-Ichikawa [3]	SEM cells [5]
HPLM + 10% dialyzed FBS	433	461	461
RPMI 5 mM glucose + 10% FBS	441	457	456
RPMI 5 mM glucose + 10% dialyzed FBS	457	455	467

COc1ccc2cc1Oc1ccc(cc1)C[C@H]1c3cc(c(OC)cc3CCN1C)Oc1c(OC)c(OC)cc3c1[C@H](C2)N(C)CC3
cell viability [%]
Details	NOMO1 [6]	P12-Ichikawa [1]	SEM cells [2]
HPLM + 10% dialyzed FBS, 0.000781 µM	–	113	123
HPLM + 10% dialyzed FBS, 0.00234 µM	–	122	120
HPLM + 10% dialyzed FBS, 0.00702 µM	–	118	135
HPLM + 10% dialyzed FBS, 0.0211 µM	–	118	107
HPLM + 10% dialyzed FBS, 0.0632 µM	–	110	111
HPLM + 10% dialyzed FBS, 0.19 µM	–	114	123
HPLM + 10% dialyzed FBS, 0.569 µM	–	113	108
HPLM + 10% dialyzed FBS, 1.71 µM	–	101	82.6
HPLM + 10% dialyzed FBS, 5.12 µM	–	96.8	130
HPLM + 10% dialyzed FBS, 15.4 µM	–	98.3	102
HPLM + 10% dialyzed FBS, 46.1 µM	–	63.2	86.8
RPMI 5 mM glucose + 10% FBS, 0.000781 µM	109	123	124
RPMI 5 mM glucose + 10% FBS, 0.00234 µM	110	118	122
RPMI 5 mM glucose + 10% FBS, 0.00702 µM	132	115	115
RPMI 5 mM glucose + 10% FBS, 0.0211 µM	111	117	144
RPMI 5 mM glucose + 10% FBS, 0.0632 µM	111	113	127
RPMI 5 mM glucose + 10% FBS, 0.19 µM	116	111	126
RPMI 5 mM glucose + 10% FBS, 0.569 µM	117	112	120
RPMI 5 mM glucose + 10% FBS, 1.71 µM	107	111	88.9
RPMI 5 mM glucose + 10% FBS, 5.12 µM	98.3	103	116
RPMI 5 mM glucose + 10% FBS, 15.4 µM	99.8	91.2	105
RPMI 5 mM glucose + 10% FBS, 46.1 µM	85.1	49.1	72.5
RPMI 5 mM glucose + 10% dialyzed FBS, 0.000781 µM	107	114	125
RPMI 5 mM glucose + 10% dialyzed FBS, 0.00234 µM	120	111	117
RPMI 5 mM glucose + 10% dialyzed FBS, 0.00702 µM	121	115	113
RPMI 5 mM glucose + 10% dialyzed FBS, 0.0211 µM	118	106	125
RPMI 5 mM glucose + 10% dialyzed FBS, 0.0632 µM	113	113	107
RPMI 5 mM glucose + 10% dialyzed FBS, 0.19 µM	119	103	135
RPMI 5 mM glucose + 10% dialyzed FBS, 0.569 µM	111	105	105
RPMI 5 mM glucose + 10% dialyzed FBS, 1.71 µM	108	103	95.6
RPMI 5 mM glucose + 10% dialyzed FBS, 5.12 µM	103	102	114
RPMI 5 mM glucose + 10% dialyzed FBS, 15.4 µM	98.7	95.6	89.5
RPMI 5 mM glucose + 10% dialyzed FBS, 46.1 µM	86.8	58.5	64

AUC of viability dose-response curve
Details	NOMO1 [4]	P12-Ichikawa [3]	SEM cells [5]
HPLM + 10% dialyzed FBS	430	442	423
RPMI 5 mM glucose + 10% FBS	451	447	432
RPMI 5 mM glucose + 10% dialyzed FBS	452	458	441
